Reference: patent publication US11999739B2, “Antimicrobials methods of making and using the same” (BIOVERSYS AG, priority 2016, dated 2024)

Key:
[1] = system: Staphylococcus aureus (S. aureus) 11540 strain; assay: Standard microdilution MIC assay, S. aureus; format: cell-based
Summary of the method: (§1)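 MICs obtained by CLSI-standard microdilution, quality-controlled with reference strains in parallel. Values reported as + or − relative to a 16 micrograms/mL cutoff.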

[2] = system: Escherichia coli strain ATCC25922; assay: Standard microdilution MIC assay, E. coli; format: cell-based
Summary of the method: as §1

Row | SMILES | MIC [1] | MIC [2]
1 | COC[C@H](N)CCCc1cc(-c2cc3cn(-c4ccc([C@@H]5CCC[C@@H](CCNC(C)=N)N5)c(OC)c4)c(=O)nc3[nH]2)c(F)c(C(F)(F)F)c1 [Compound 194] | ≤ 16 µg/mL | ≤ 16 µg/mL
2 | COC[C@H](N)CCCc1cc(OC(F)(F)F)c(F)c(-c2cc3cn(-c4ccc([C@@H]5CCC[C@@H](CCNC(C)=N)N5)cc4)c(=O)nc3[nH]2)c1 [Compound 195] | ≤ 16 µg/mL | ≤ 16 µg/mL
3 | COC[C@H](N)CCCc1cc(OC(F)(F)F)c(F)c(-c2cc3cn(-c4ccc([C@@H]5CCC[C@@H](CCNC(C)=N)N5)c(OC)c4)c(=O)nc3[nH]2)c1 [Compound 197] | ≤ 16 µg/mL | ≤ 16 µg/mL
4 | COC[C@H](N)CCCc1cc(OC(F)(F)F)c(F)c(-c2cc3cn(-c4ccc([C@@H]5CCC[C@@H](CCNC(C)=N)N5)c(SC)c4)c(=O)nc3[nH]2)c1 [Compound 198] | ≤ 16 µg/mL | ≤ 16 µg/mL
5 | COC[C@H](N)CCCc1cc(-c2cc3cn(-c4ccc([C@@H]5CCC[C@@H](CCNC(C)=N)N5)c(F)c4)c(=O)nc3[nH]2)cc(C(F)(F)F)c1 [Compound 201] | ≤ 16 µg/mL | ≤ 16 µg/mL
6 | COC[C@H](N)CCCc1cc(-c2cc3cn(-c4ccc([C@@H]5CCC[C@@H](CCNC(C)=N)N5)c(SC)c4)c(=O)nc3[nH]2)cc(C(F)(F)F)c1 [Compound 202] | ≤ 16 µg/mL | ≤ 16 µg/mL
7 | CSc1cc(-n2cc3cc(-c4cc(CCC[C@@H](N)CF)cc(C(F)(F)F)c4)[nH]c3nc2=O)ccc1[C@@H]1CCC[C@@H](CCNC(C)=N)N1 [Compound 203] | ≤ 16 µg/mL | ≤ 16 µg/mL
8 | CC(=N)NCC[C@@H]1CCC[C@@H](c2ccc(-n3cc4cc(-c5cc(CCC[C@@H](N)CF)cc(C(F)(F)F)c5)[nH]c4nc3=O)cc2)N1 [Compound 204] | ≤ 16 µg/mL | ≤ 16 µg/mL
9 | CC(=N)NCC[C@@H]1CCC[C@@H](c2ccc(-n3cc4cc(-c5cc(CCC[C@@H](N)CF)cc(C(F)(F)F)c5)[nH]c4nc3=O)cc2F)N1 [Compound 205] | ≤ 16 µg/mL | ≤ 16 µg/mL
10 | CC(=N)NCC[C@@H]1CCC[C@@H](c2ccc(-n3cc4cc(-c5cc(CCC[C@@H](N)C6CC6)cc(C(F)(F)F)c5)[nH]c4nc3=O)cc2)N1 [Compound 206] | ≤ 16 µg/mL | ≤ 16 µg/mL
11 | CC(=N)NCC[C@@H]1CCC[C@@H](c2ccc(-n3cc4cc(-c5cc(CCC[C@@H](N)C6CC6)cc(OC(F)(F)F)c5F)[nH]c4nc3=O)cc2)N1 [Compound 207] | ≤ 16 µg/mL | ≤ 16 µg/mL
12 | CC(=N)NCC[C@@H]1CCC[C@@H](c2ccc(-n3cc4cc(-c5cc(CCC[C@@H](N)C6CC6)cc(OC(F)(F)F)c5F)[nH]c4nc3=O)cc2F)N1 [Compound 208] | ≤ 16 µg/mL | ≤ 16 µg/mL
13 | COc1cc(-n2cc3cc(-c4cc(CCC[C@@H](N)CF)cc(C(F)(F)F)c4)[nH]c3nc2=O)ccc1[C@@H]1CCC[C@@H](CCNC(C)=N)N1 [Compound 209] | ≤ 16 µg/mL | ≤ 16 µg/mL
14 | COC[C@H](N)CCCc1cc(-c2cc3cn(-c4ccc([C@@H]5CCC[C@@H](CCNC(C)=N)N5)c(OC)c4)c(=O)nc3[nH]2)cc(C(F)(F)F)c1 [Compound 210] | ≤ 16 µg/mL | ≤ 16 µg/mL
15 | CC(=N)NCC[C@@H]1CCC[C@@H](c2ccc(-n3cc4cc(-c5cc(CCC[C@@H](N)C6CC6)cc(C(F)(F)F)c5)[nH]c4nc3=O)cc2F)N1 [Compound 211] | ≤ 16 µg/mL | ≤ 16 µg/mL
16 | CC(=N)NCC[C@@H]1CCC[C@@H](c2ccc(-n3cc4cc(-c5cc(CCC[C@@H](N)C6CC6)cc(C(F)(F)F)c5F)[nH]c4nc3=O)cc2)N1 [Compound 212] | ≤ 16 µg/mL | ≤ 16 µg/mL
17 | CC(=N)NCC[C@@H]1CCC[C@@H](c2ccc(-n3cc4cc(-c5cc(CCC[C@@H](N)C6CC6)cc(OC(F)(F)F)c5F)[nH]c4nc3=O)cc2OC(F)(F)F)N1 [Compound 213] | ≤ 16 µg/mL | ≤ 16 µg/mL
18 | COC[C@H](N)CCCc1cc(-c2cc3cn(-c4ccc([C@@H]5CCC[C@@H](CCNC(C)=N)N5)c(OC(F)(F)F)c4)c(=O)nc3[nH]2)cc(C(F)(F)F)c1 [Compound 214] | ≤ 16 µg/mL | ≤ 16 µg/mL
19 | CC(=N)NCC[C@@H]1CCC[C@@H](c2ccc(-n3cc4cc(-c5cc(CCC[C@@H](N)CF)cc(C(F)(F)F)c5)[nH]c4nc3=O)cc2OC(F)(F)F)N1 [Compound 215] | ≤ 16 µg/mL | ≤ 16 µg/mL
20 | COC[C@H](N)CCCc1cc(-c2cc3cn(-c4ccc([C@@H]5CCC[C@@H](CCNC(C)=N)N5)c(OC(F)(F)F)c4)c(=O)nc3[nH]2)c(F)c(C(F)(F)F)c1 [Compound 216] | ≤ 16 µg/mL | ≤ 16 µg/mL
21 | CC(=N)NCC[C@@H]1CCC[C@@H](c2ccc(-n3cc4cc(-c5cc(CCC[C@@H](N)C6CC6)cc(C(F)(F)F)c5)[nH]c4nc3=O)cc2OC(F)(F)F)N1 [Compound 217] | ≤ 16 µg/mL | ≤ 16 µg/mL
22 | CC(=N)NCC[C@@H](NCc1ccc(-n2cc3cc(-c4cc(CCC[C@@H](N)CF)cc(Cl)c4F)[nH]c3nc2=O)cc1)C1CC1 [Compound 218] | ≤ 16 µg/mL | ≤ 16 µg/mL
23 | CC(=N)NCC[C@@H](NCc1ccc(-n2cc3cc(-c4cc(CCC[C@@H](N)C5CC5)cc(Cl)c4F)[nH]c3nc2=O)cc1)C1CC1 [Compound 219] | ≤ 16 µg/mL | ≤ 16 µg/mL

Row | SMILES | MIC [1] | MIC [2]
24 | C=C[C@H](N)CCCc1cc(Cl)c(F)c(-c2cc3cn(-c4ccc(CN[C@H](CCNC(C)=N)C5CC5)cc4)c(=O)nc3[nH]2)c1 [Compound 220] | ≤ 16 µg/mL | ≤ 16 µg/mL
25 | CC(=N)NCC[C@@H]1CCC[C@@H](c2ccc(-n3cc4cc(-c5cc(CCC[C@@H](N)CF)cc(C(F)(F)F)c5F)[nH]c4nc3=O)cc2F)N1 [Compound 221] | ≤ 16 µg/mL | ≤ 16 µg/mL
26 | COC[C@H](N)CCCc1cc(-c2cc3cn(-c4ccc(CN[C@H](CCNC(C)=N)C5CC5)cc4)c(=O)nc3[nH]2)cc(C(F)(F)F)c1 [Compound 222] | ≤ 16 µg/mL | ≤ 16 µg/mL
27 | COC[C@H](N)CCCc1cc(OC(F)(F)F)c(F)c(-c2cc3cn(-c4ccc(CN[C@H](CCNC(C)=N)C5CC5)cc4)c(=O)nc3[nH]2)c1 [Compound 223] | ≤ 16 µg/mL | ≤ 16 µg/mL
28 | COC[C@H](N)CCCc1cc(-c2cc3cn(-c4ccc(CN[C@H](CCNC(C)=N)C5CC5)cc4)c(=O)nc3[nH]2)c(F)c(C(F)(F)F)c1 [Compound 224] | ≤ 16 µg/mL | ≤ 16 µg/mL
29 | CC(=N)NCC[C@@H]1CCC[C@@H](c2ccc(-n3cc4cc(-c5cc(CCC[C@@H](N)CF)cc(C(F)(F)F)c5F)[nH]c4nc3=O)cc2OC(F)(F)F)N1 [Compound 225] | ≤ 16 µg/mL | ≤ 16 µg/mL
30 | CC(=N)NCC[C@@H]1CCC[C@@H](c2ccc(-n3cc4cc(-c5cc(CCC[C@@H]6COCCN6)cc(Cl)c5F)[nH]c4nc3=O)cc2)N1 [Compound 226] | ≤ 16 µg/mL | ≤ 16 µg/mL
31 | CC(=N)NCC[C@@H]1CCC[C@@H](c2ccc(-n3cc4cc(-c5cc(CCC[C@@H]6COCC(=O)N6)cc(Cl)c5F)[nH]c4nc3=O)cc2)N1 [Compound 227] | ≤ 16 µg/mL | ≤ 16 µg/mL
32 | CC(=N)NCC[C@@H]1CCC[C@@H](c2ccc(-n3cc4cc(-c5cc(CCC[C@@H](N)C6CC6)cc(C(F)(F)F)c5F)[nH]c4nc3=O)cc2F)N1 [Compound 228] | ≤ 16 µg/mL | ≤ 16 µg/mL
33 | CC(=N)NCC[C@@H]1CCC[C@@H](c2ccc(-n3cc4cc(-c5cc(CCC[C@@H](N)C6CC6)cc(C(F)(F)F)c5F)[nH]c4nc3=O)cc2OC(F)(F)F)N1 [Compound 229] | ≤ 16 µg/mL | ≤ 16 µg/mL
34 | CC(=N)NCC[C@@H](NCc1ccc(-n2cc3cc(-c4cc(CCC[C@@H](N)CF)cc(C(F)(F)F)c4F)[nH]c3nc2=O)cc1)C1CC1 [Compound 230] | ≤ 16 µg/mL | ≤ 16 µg/mL
35 | CC(=N)NCC[C@@H]1CCC[C@@H](c2ccc(-n3cc4cc(-c5cc(CCC[C@@H](N)CO)cc(OC(F)(F)F)c5F)[nH]c4nc3=O)cc2OC(F)(F)F)N1 [Compound 231] | ≤ 16 µg/mL | ≤ 16 µg/mL
36 | CC(=N)NCC[C@@H]1CCC[C@@H](c2ccc(-n3cc4cc(-c5cc(CCC[C@H](C)N)cc(Cl)c5F)[nH]c4nc3=O)cc2C)N1 [Compound 232] | ≤ 16 µg/mL | ≤ 16 µg/mL
37 | COC[C@H](N)CCCc1cc(OC(F)(F)F)c(F)c(-c2cc3cn(-c4ccc([C@@H]5CCC[C@@H](CCNC(C)=N)N5)c(OC(F)(F)F)c4)c(=O)nc3[nH]2)c1 [Compound 233] | ≤ 16 µg/mL | ≤ 16 µg/mL
38 | COc1cc(-n2cc3cc(-c4cc(CCC[C@@H](N)C5CC5)cc(OC(F)(F)F)c4F)[nH]c3nc2=O)ccc1[C@@H]1CCC[C@@H](CCNC(C)=N)N1 [Compound 234] | ≤ 16 µg/mL | ≤ 16 µg/mL
39 | COc1cc(-n2cc3cc(-c4cc(CCC[C@@H](N)C5CC5)cc(C(F)(F)F)c4F)[nH]c3nc2=O)ccc1[C@@H]1CCC[C@@H](CCNC(C)=N)N1 [Compound 235] | ≤ 16 µg/mL | ≤ 16 µg/mL
40 | CC(=N)NCC[C@@H]1CCC[C@@H](c2ccc(-n3cc4cc(-c5cc(CCC[C@@H](N)CF)cc(OC(F)(F)F)c5F)[nH]c4nc3=O)cc2)N1 [Compound 236] | ≤ 16 µg/mL | ≤ 16 µg/mL
41 | COc1cc(-n2cc3cc(-c4cc(CCC[C@@H](N)CF)cc(C(F)(F)F)c4F)[nH]c3nc2=O)ccc1[C@@H]1CCC[C@@H](CCNC(C)=N)N1 [Compound 237] | ≤ 16 µg/mL | ≤ 16 µg/mL
42 | COC[C@H](N)CCCc1cc(OC(F)(F)F)c(F)c(-c2cc3cn(-c4ccc([C@@H]5CCC[C@@H](CCNC(C)=N)N5)c(C)c4)c(=O)nc3[nH]2)c1 [Compound 238] | ≤ 16 µg/mL | ≤ 16 µg/mL
43 | CC(=N)NCC[C@@H]1CCC[C@@H](c2ccc(-n3cc4cc(-c5cc(CCC[C@@H](N)C6CC6)cc(Cl)c5F)[nH]c4nc3=O)cc2C)N1 [Compound 239] | ≤ 16 µg/mL | ≤ 16 µg/mL
44 | CSc1cc(-n2cc3cc(-c4cc(CCC[C@H](C)N)cc(Cl)c4F)[nH]c3nc2=O)cc(F)c1[C@@H]1CCC[C@@H](CCNC(C)=N)N1 [Compound 240] | ≤ 16 µg/mL | ≤ 16 µg/mL
45 | COC[C@H](N)CCCc1cc(OC(F)(F)F)c(F)c(-c2cc3cn(-c4cc(F)c([C@@H]5CCC[C@@H](CCNC(C)=N)N5)c(SC)c4)c(=O)nc3[nH]2)c1 [Compound 241] | ≤ 16 µg/mL | ≤ 16 µg/mL
